Measured values as given in US20220408724A1, “METHOD FOR CONTROLLING METABOLISM OF BRANCHED FATTY ACID” (KAO CORPORATION, priority 2019, published 2022).
Where “and” joins values, the source holds several entries; their conditions need not be identical. Equal values may be shown once.

Key:
Format in all cases: cell-based
Rhodotorula mucilaginosa [1] = test: Suppression of metabolite 4-methylhexanoic acid from 14-methylhexadecanoic acid
Method: The extraction liquid was mixed with (a 1000 ppm methanol solution of) an ADAM reagent of Funakoshi Co., Ltd. at 1:1 (volume ratio) and left overnight under room temperature and dark place conditions. […] The quantification conditions are as follows. […] The higher a numerical value thereof is, the more the metabolism is suppressed. Note that the metabolite suppression rate was determined by the following formula: […] In this example, Rhodotorula mucilaginosa (strain isolated from clothing) was used as a microorganism. Further, in this example, the bacteria were precultured under conditions of a PDA agar medium (Difco), 30° C.; and 48 hours. Further, in this example, a bacterial suspension of 10^7 (CFU/ml) prepared by using a PDB liquid medium (Difco) diluted to 1/10 with ion exchange water was used as a bacterial suspension.

Rhodotorula mucilaginosa [2] = test: Measurement of viable count on fabric (PDA agar)
Method: After culture on fabric prepared in the same manner as in the above (1), 9 mL of an LP diluent (manufactured by NIHON PHARMACEUTICAL CO., LTD.) was added, and the extraction of the bacteria was carried out under ultrasound for 10 minutes. The extraction liquid was poured and mixed to an SCD-LP agar medium (NIHON PHARMACEUTICAL CO., LTD.), and culture was thereafter carried out at 37° C.; for a day. The number of colonies obtained on each piece of the fabric was counted, and a common logarithm value thereof was measured as the viable bacterial count. […] In addition, the […], the more the viable bacterial count of the microorganism is maintained.
The metabolism of 14-methylhexadecanoic acid by yeast of the genus Rhodotorula was tested in the same manner as in example 1.
In this example, Rhodotorula mucilaginosa (strain isolated from clothing) was used as a microorganism.
Further, in this example, the bacteria were precultured under conditions of a PDA agar medium (Difco), 30° C.; and 48 hours.
Further, in this example, a bacterial suspension of 10^7 (CFU/ml) prepared by using a PDB liquid medium (Difco) diluted to 1/10 with ion exchange water was used as a bacterial suspension.
Further, in this example, after the extraction of the bacteria in (3) of example 1, they were poured and mixed to a PDA agar medium (Difco) and thereafter cultured at 30° C.; for 2 days, and the viable bacterial count was measured.
Note that, in this example, C12OH (1-dodecanol) was used as the metabolism controlling agent.

Moraxella osloensis [3] = test: Examination example: suppression of metabolism of 14-methylhexadecanoic acid, components (a) and (b)/(b′); conditions: single agent 100 μg/fabric g
Method: The suppression of metabolism of 14-methylhexadecanoic acid by bacteria of the genus Moraxella and the suppression of a metabolite therefrom were tested in the following manner.
Moraxella osloensis (strain isolated from clothing) was precultured on an SCD-LP agar medium (NIHON PHARMACEUTICAL CO., LTD.) at 37° C.; for 24 hours, and a bacterial suspension of 10^6 (CFU/ml) was prepared by using an NB liquid medium (Difco) diluted to 1/20 with ion exchange water.
A methanol solution in which 14-methylhexadecanoic acid (SIGMA-ALDRICH) was dissolved was added dropwise to 3 cm×3 cm pieces of sterilized plain-weave cotton fabric to make it adhered to the fabric. The adhesion amount of 14-methylhexadecanoic acid was set to 10 μg per piece of the plain-weave cotton fabric (100 μg/fabric g). Further, a methanol solution in which component (a) was dissolved, and then, a methanol solution in which component (b) or (b′) was dissolved were added dropwise to the fabric to which 14-methylhexadecanoic acid adhered, and it was thereafter dried for an hour. This fabric was placed in a sterilized screw tube bottle No. 3 (Maruemu Corporation) and 100 μl of the bacterial suspension was inoculated thereto, and culture was carried out under 37° C.; conditions for 21 hours.
3 ml of methanol was added to the screw tube bottle after culture, and extraction was carried out under ultrasonic irradiation for 30 minutes (20° C.). The extraction liquid was mixed with a (trimethylsilyl)diazomethane hexane solution (FUJIFILM Wako Pure Chemical Corporation) at 9:1 (volume ratio) and left overnight under room temperature and dark place conditions. After that, 14-methylhexadecanoic acid remaining on the fabric was quantified by GC. The quantification conditions for GC are as follows. • GC: Agilent 6890N • GC column: Agilent DB-1 30 m×250 μm×0.25 μm • Temperature rise condition: 50° C. (held for 3 minutes)-(10° C./min)-300° C. (held for 5 minutes) • Sample injection volume: 1 μl • Split ratio: 1:12 • Detector: FID
The residual amount of 14-methylhexadecanoic acid after culture on the fabric to which each metabolism controlling agent was added was quantified, and the ratio of the residual amount to that of 14-methylhexadecanoic acid in the case of adding no metabolism controlling agent (control) was calculated as a metabolism suppression rate (%). The higher a numerical value thereof is, the more the metabolism is suppressed. Note that the metabolism suppression rate was determined by the following formula:
Metabolism suppression rate(%)=[1−(100−A)/(100−B)]×100 • A: residual amount of 14-methylhexadecanoic acid of reference or examination example (μg/fabric g) • B: residual amount of 14-methylhexadecanoic acid of control (μg/fabric g)
A control is an example in which none of component (a), (b) or (b′) is added, and references 1-1, 2-1, 3-1 and 4-1 qualify as this (the same applies hereinafter). In these controls, the metabolism suppression rate is 0′.

Moraxella osloensis [4] = test: Examination example: suppression of metabolite 4-methyl-3-hexenoic acid, components (a) and (b)/(b′); conditions: single agent 100 μg/fabric g
Method: After culture on fabric prepared in the same manner as in the above (1), 3 ml of methanol was added, and extraction was carried out under ultrasonic irradiation for 30 minutes (20° C.). The extraction liquid was mixed with (a 1000 ppm methanol solution of) an ADAM reagent of Funakoshi Co., Ltd. at 1:1 (volume ratio) and left overnight under room temperature and dark place conditions. After that, 4-methyl-3-hexenoic acid as a metabolite from 14-methylhexadecanoic acid was quantified by HPLC. The quantification conditions are as follows.
Eluent: acetonitrile 61% (v/v), water 39% (v/v) Column temperature: 40° C. Sample injection volume: 10 μL Flow rate: 1.0 mL/min
The production amount of 4-methyl-3-hexenoic acid after culture on the fabric to which the metabolism controlling agent was added was quantified, and the ratio of the production amount to that of 4-methyl-3-hexenoic acid in the case of adding no metabolism controlling agent (control) was calculated as a metabolite suppression rate (%). The higher a numerical value thereof is, the more the metabolism is suppressed. Note that the metabolite suppression rate was determined by the following formula. In references 1-1, 2-1, 3-1 and 4-1, which are controls, the metabolite suppression rate is 0%.
Metabolite suppression rate(%)=100×[(D−C)/D] • C: production amount of metabolite of reference or examination example (μg/fabric g) • D: production amount of metabolite of control (μg/fabric g)

## CCCCCCCCCCCCO [Example C12OH, 1-dodecanol]
Rhodotorula mucilaginosa [1]; agent 250 μg/fabric g
  Metabolite suppression rate (%): 62% and 72.50%
Rhodotorula mucilaginosa [1]; agent 500 μg/fabric g
  Metabolite suppression rate (%): 65.80%
Rhodotorula mucilaginosa [1]; agent 1000 μg/fabric g
  Metabolite suppression rate (%): 82.20%
Rhodotorula mucilaginosa [2]; agent 250 μg/fabric g
  Bacterial count (Log (cfu/fabric cm^2)): 4.9 Log (cfu/fabric cm^2)
Rhodotorula mucilaginosa [2]; agent 500 μg/fabric g
  Bacterial count (Log (cfu/fabric cm^2)): 4.7 Log (cfu/fabric cm^2)
Rhodotorula mucilaginosa [2]; agent 1000 μg/fabric g
  Bacterial count (Log (cfu/fabric cm^2)): 4.8 Log (cfu/fabric cm^2)
Moraxella osloensis [3]; 14-methylhexadecanoic acid
  Metabolism of branched fatty acid: Residual amount (μg/fabric g): 59 μg/fabric g
Moraxella osloensis [3]
  Metabolism of branched fatty acid: Metabolism suppression rate (%): 33%
Moraxella osloensis [4]
  Product of metabolism of branched fatty acid: Metabolite suppression rate (%): 20%
  Product of metabolism of branched fatty acid: Production amount (μg/fabric g): 3.5 μg/fabric g
